PubChem BioAssay AID248 (DTP/NCI, 2004)
Toxic doses and inconclusive results are not listed. Rule as the data show it: active = T/C of 150% or more; inactive = T/C below 125%.

System: L1210 leukemia ip in BDF1 mice, survival T/C
Assay: NCI In Vivo Anticancer Drug Screen. Data for tumor model L1210 Leukemia (intraperitoneal) in B6D2F1 (BDF1) mice
Conditions: endpoint: mean survival time, higher = longer survival
How it was run: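 In this screen, tumor-bearing mice given compound are compared to those given vehicle, and their survival values are reported as a treated-to-control quotient.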

[1] = dose: 100.0 mg/kg/injection, schedule: Q01DX001 (ip), vehicle: saline
[2] = dose: 100.0 mg/kg/injection, schedule: Q01DX009 (ip), vehicle: saline with Tween-80
[3] = dose: 100.0 mg/kg/injection, schedule: Q04DX003 (ip), vehicle: saline
[4] = dose: 200.0 mg/kg/injection, schedule: Q01DX001 (ip), vehicle: saline
[5] = dose: 200.0 mg/kg/injection, schedule: Q01DX009 (ip), vehicle: saline with Tween-80
[6] = dose: 200.0 mg/kg/injection, schedule: Q04DX003 (ip), vehicle: saline
[7] = dose: 400.0 mg/kg/injection, schedule: Q01DX001 (ip), vehicle: saline
[8] = dose: 400.0 mg/kg/injection, schedule: Q04DX003 (ip), vehicle: saline
[9] = dose: 100.0 mg/kg/injection, schedule: Q04DX003 (ip), vehicle: Klucel (hydroxypropylcellulose) (HPC)
[10] = dose: 200.0 mg/kg/injection, schedule: Q04DX003 (ip), vehicle: Klucel (hydroxypropylcellulose) (HPC)
[11] = dose: 100.0 mg/kg/injection, schedule: Q01DX009 (ip), vehicle: Klucel (hydroxypropylcellulose) (HPC)
[12] = dose: 200.0 mg/kg/injection, schedule: Q01DX009 (ip), vehicle: Klucel (hydroxypropylcellulose) (HPC)
[13] = dose: 400.0 mg/kg/injection, schedule: Q01DX009 (ip), vehicle: saline with Tween-80
[14] = dose: 100.0 mg/kg/injection, schedule: Q01DX001 (ip), vehicle: Klucel (hydroxypropylcellulose) (HPC)
[15] = dose: 100.0 mg/kg/injection, schedule: Q04DX003 (ip), vehicle: saline with Tween-80
[16] = dose: 200.0 mg/kg/injection, schedule: Q04DX003 (ip), vehicle: saline with Tween-80
[17] = dose: 400.0 mg/kg/injection, schedule: Q04DX003 (ip), vehicle: saline with Tween-80
[18] = dose: 100.0 mg/kg/injection, schedule: Q01DX009 (ip), vehicle: saline
[19] = dose: 400.0 mg/kg/injection, schedule: Q01DX009 (ip), vehicle: Klucel (hydroxypropylcellulose) (HPC)

Measured: T/C

COc1ccc(/C(C#N)=C2C=C(Cl)/C(=N/O)C=C/2Cl)cc1
inactive: [1] 91 % of control | [2] 93 % of control | [3] 91 % of control | [4] 95 % of control | [5] 98 % of control | [6] 87 % of control | [7] 96 % of control | [8] 86 % of control

O=C(O)C1CCCC2C(O)CCC(O)C12 (centres undefined)
inactive: [1] 107 % of control | [3] 105 % of control | [4] 93 % of control | [6] 111 % of control | [7] 91 % of control | [8] 105 % of control

O=[N+]([O-])c1ccccc1NC1c2ccccc2Oc2ccccc21
inactive: [9] 96 % of control | [10] 93 % of control | dose: 400.0 mg/kg/injection, schedule: Q04DX003 (ip), vehicle: Klucel (hydroxypropylcellulose) (HPC) 93 % of control

FC(F)(F)c1nc(Cl)c2cn[nH]c2n1
inactive: dose: 44.0 mg/kg/injection, schedule: Q01DX Z (ip), vehicle: methylcellulose (MC) 104 % of control | dose: 66.0 mg/kg/injection, schedule: Q01DX Z (ip), vehicle: methylcellulose (MC) 103 % of control | dose: 100.0 mg/kg/injection, schedule: Q01DX Z (ip), vehicle: methylcellulose (MC) 100 % of control

Cc1ccc(Cl)cc1NC(=O)c1cccc(C(=O)Nc2cc(Cl)ccc2C)c1
inactive: dose: 50.0 mg/kg/injection, schedule: Q01DX009 (ip), vehicle: Klucel (hydroxypropylcellulose) (HPC) 91 % of control | [11] 100 % of control | [9] 98 % of control | [12] 91 % of control | [10] 88 % of control

CCC1=NNC(=O)C1(Br)Br
inactive: dose: 5.0 mg/kg/injection, schedule: Q01DX001 (ip), vehicle: saline 105 % of control | dose: 10.0 mg/kg/injection, schedule: Q01DX001 (ip), vehicle: saline 100 % of control | dose: 20.0 mg/kg/injection, schedule: Q01DX001 (ip), vehicle: saline 100 % of control | dose: 40.0 mg/kg/injection, schedule: Q01DX001 (ip), vehicle: saline 97 % of control | dose: 80.0 mg/kg/injection, schedule: Q01DX001 (ip), vehicle: saline 103 % of control

C=CCc1cc(C)cc([N+](=O)[O-])c1OBr
inactive: dose: 100.0 mg/kg/injection, schedule: Q01DX001 (ip), vehicle: saline with Tween-80 89 % of control | [2] 97 % of control | dose: 200.0 mg/kg/injection, schedule: Q01DX001 (ip), vehicle: saline with Tween-80 88 % of control | [5] 98 % of control | dose: 400.0 mg/kg/injection, schedule: Q01DX001 (ip), vehicle: saline with Tween-80 93 % of control | [13] 93 % of control

O=C(O)c1ccccc1[N+](=O)[O-]
inactive: [14] 99 % of control | dose: 200.0 mg/kg/injection, schedule: Q01DX001 (ip), vehicle: Klucel (hydroxypropylcellulose) (HPC) 97 % of control | dose: 400.0 mg/kg/injection, schedule: Q01DX001 (ip), vehicle: Klucel (hydroxypropylcellulose) (HPC) 96 % of control

CCCCOC(=O)CSC(=O)C(O)c1ccccc1 (centres undefined)
inactive: [15] 105 % of control | [16] 101 % of control | [17] 103 % of control

Cc1ccc(-n2c(=O)c(N=Nc3ccc(Cl)cc3)c(O)n(-c3ccccc3Cl)c2=S)cc1
inactive: dose: 25.0 mg/kg/injection, schedule: Q01DX001 (ip), vehicle: Klucel (hydroxypropylcellulose) (HPC) 97 % of control | dose: 50.0 mg/kg/injection, schedule: Q01DX001 (ip), vehicle: Klucel (hydroxypropylcellulose) (HPC) 101 % of control | [14] 92 % of control

CC(=O)Nc1cc2c(cc1[N+](=O)[O-])-c1ccccc1C2O (centres undefined)
inactive: dose: 25.0 mg/kg/injection, schedule: Q04DX003 (ip), vehicle: saline 94 % of control | dose: 50.0 mg/kg/injection, schedule: Q04DX003 (ip), vehicle: saline 100 % of control | [1] 87 % of control | [18] 102 % of control | [15] 102 % of control | [3] 96 % of control | dose: 150.0 mg/kg/injection, schedule: Q01DX009 (ip), vehicle: saline 92 % of control | [16] 101 % of control | dose: 225.0 mg/kg/injection, schedule: Q01DX009 (ip), vehicle: saline 105 % of control | [17] 104 % of control

O=C(CCc1ccccc1)NC(=S)Nc1cc(C(F)(F)F)ccc1Cl
inactive: [11] 94 % of control | [12] 90 % of control | [19] 87 % of control

Cn1c(=O)c2[n-]cnc2n(C)c1=O.Cn1c(=O)c2[n-]cnc2n(C)c1=O.[Pt+2]
inactive: dose: 25.0 mg/kg/injection, schedule: Q04DX003 (ip), vehicle: saline with Tween-80 102 % of control | dose: 50.0 mg/kg/injection, schedule: Q04DX003 (ip), vehicle: saline with Tween-80 98 % of control | [15] 98 % of control

O=C(O)C1=CCC=CC1C(=O)O (centres undefined)
inactive: dose: 25.0 mg/kg/injection, schedule: Q01DX009 (ip), vehicle: saline 93 % of control | dose: 50.0 mg/kg/injection, schedule: Q01DX009 (ip), vehicle: saline 95 % of control | [18] 98 % of control | [3] 95 % of control | [6] 93 % of control

CCOC(=O)c1ccc(N(CC(=O)CN=[N+]=[N-])S(=O)(=O)c2ccc(C)cc2)cc1
inactive: [2] 96 % of control | [5] 96 % of control | [13] 89 % of control

Cc1cc(N(CCOS(C)(=O)=O)CCOS(C)(=O)=O)ccc1N=O
inactive: dose: 62.5 micrograms/kg/injection, schedule: Q01DX010 (ip), vehicle: saline 121 % of control

C=CCc1c(O)c(OC)cc2c1C(=O)CCCC2
inactive: dose: 50.0 mg/kg/injection, schedule: Q01DX009 (ip), vehicle: saline with Tween-80 93 % of control | [2] 93 % of control | [5] 93 % of control

CCOC(CS(=O)(=O)CC(N)=O)OCC
inactive: [2] 97 % of control | [5] 95 % of control | [13] 92 % of control

CC(=O)OC1C(CF)OC(n2ccc(=O)[nH]c2=O)C1OC(C)=O (centres undefined)
inactive: dose: 100.0 mg/kg/injection, schedule: Q01DX005 (ip), vehicle: saline 105 % of control | dose: 200.0 mg/kg/injection, schedule: Q01DX005 (ip), vehicle: saline 123 % of control

O=S(Cc1ccc(Cl)cc1)C(Cl)(Cl)c1ccc(Cl)cc1 (centres undefined)
inactive: dose: 100.0 mg/kg/injection, schedule: Q04DX002 (ip), vehicle: Klucel (hydroxypropylcellulose) (HPC) 116 % of control | dose: 200.0 mg/kg/injection, schedule: Q04DX002 (ip), vehicle: Klucel (hydroxypropylcellulose) (HPC) 116 % of control | dose: 400.0 mg/kg/injection, schedule: Q04DX002 (ip), vehicle: Klucel (hydroxypropylcellulose) (HPC) 94 % of control

COc1ccc(/C=C2\NC(=O)NC2=O)cc1Br
inactive: [11] 93 % of control | [12] 96 % of control | [19] 91 % of control
